According to ChEMBL document CHEMBL5233223, “Dammarane-type leads panaxadiol and protopanaxadiol for drug discovery: Biological activity and structural modification” (Eur J Med Chem, 2020):
pIC50: −log10 of the molar value. In brackets after ≈: the same amount, converted by molar mass.

Columns and labels:
HCT-116 [1] = assay: Induction of apoptosis in human HCT-116 cells at 30 uM by annexin V-FITC/propidium iodide staining based flow cytometry analysis relative to control; type: functional
HCT-116 [2] = assay: Antiproliferative activity against human HCT-116 cells at 10 uM incubated for 48 hrs in presence of PPD by MTS assay relative to control; type: functional
HCT-116 [3] = assay: Antiproliferative activity against human HCT-116 cells at 20 uM incubated for 48 hrs in presence of PPD by MTS assay relative to control; type: functional
HCT-116 [4] = assay: Induction of apoptosis in human HCT-116 cells at 30 uM in presence of PPD by annexin V-FITC/propidium iodide staining based flow cytometry analysis relative to control; type: functional
HCT-116 [5] = assay: Antiproliferative activity against human HCT-116 cells at 30 uM incubated for 48 hrs in presence of PPD by MTS assay relative to control; type: functional
HCT-116 [6] = assay: Antiproliferative activity against human HCT-116 cells at 10 uM incubated for 48 hrs by MTS assay relative to control; type: functional
HCT-116 [7] = assay: Antiproliferative activity against human HCT-116 cells at 20 uM incubated for 48 hrs by MTS assay relative to control; type: functional
HCT-116 [8] = assay: Antiproliferative activity against human HCT-116 cells at 30 uM incubated for 48 hrs by MTS assay relative to control; type: functional
HepG2 2.2.15 = assay: Antiproliferative activity against human HepG2.2.15 cells assessed as cell growth inhibition; type: functional, cell-based
LNCaP = assay: Antiproliferative activity against human LNCAP cells assessed as cell growth inhibition; type: functional, cell-based
PC-3 = assay: Antiproliferative activity against human PC-3 cells assessed as cell growth inhibition; type: functional, cell-based
HCT-116 [9] = assay: Antiproliferative activity against human HCT-116 cells assessed as cell growth inhibition at 200 uM relative to control; type: functional; set-up: scale not given: the % may be the effect or the level left
HCT-116 [10] = assay: Induction of apoptosis in human HCT-116 cells at 250 uM relative to control; type: functional
Hepatitis B virus [11] = assay: Antiviral activity against Hepatitis B virus infected in human HepG2.2.15 cells assessed as inhibition of viral DNA replication by MTT assay; type: functional, organism-based; conditions: HepG2 2.2.15
Hepatitis B virus [12] = assay: Antiviral activity against Hepatitis B virus infected in human HepG2.2.15 cells assessed as inhibition of HBsAg level by MTT assay; type: functional, organism-based; conditions: HepG2 2.2.15
Hepatitis B virus [13] = assay: Antiviral activity against Hepatitis B virus infected in human HepG2.2.15 cells assessed as inhibition of HBeAg level by MTT assay; type: functional, organism-based; conditions: HepG2 2.2.15
HCT-116 [14] = assay: Antiproliferative activity against human HCT-116 cells assessed as cell growth inhibition at 20 uM in presence of epicatechin at 150 uM relative to control; type: functional; set-up: scale not given: the % may be the effect or the level left
HCT-116 [15] = assay: Antiproliferative activity against human HCT-116 cells assessed as cell growth inhibition at 20 uM in presence of epicatechin at 200 uM relative to control; type: functional; set-up: scale not given: the % may be the effect or the level left
HCT-116 [16] = assay: Antiproliferative activity against human HCT-116 cells assessed as cell growth inhibition at 20 uM in presence of epicatechin at 250 uM relative to control; type: functional; set-up: scale not given: the % may be the effect or the level left
HCT-116 [17] = assay: Antiproliferative activity against human HCT-116 cells assessed as cell growth inhibition at 20 uM relative to control; type: functional; set-up: scale not given: the % may be the effect or the level left
HCT-116 [18] = assay: Induction of apoptosis in human HCT-116 cells at 20 uM in presence of epicatechin at 150 uM relative to control; type: functional
HCT-116 [19] = assay: Induction of apoptosis in human HCT-116 cells at 20 uM in presence of epicatechin at 200 uM relative to control; type: functional
HCT-116 [20] = assay: Induction of apoptosis in human HCT-116 cells at 20 uM in presence of epicatechin at 250 uM relative to control; type: functional
HCT-116 [21] = assay: Induction of apoptosis in human HCT-116 cells at 20 uM at 20 uM relative to control; type: functional
SK-HEP1 = assay: Antiproliferative activity against human SK-HEP1 cells assessed as cell growth inhibition measured after 24 hrs by [3H]thymidine incorporation assay; type: functional, cell-based
HeLa = assay: Antiproliferative activity against human HeLa cells assessed as cell growth inhibition measured after 24 hrs by [3H]thymidine incorporation assay; type: functional, cell-based
Mus musculus = assay: In vivo radioprotective activity in gamma-irradiated ICR mouse assessed as inhibition of radiation-induced apoptosis frequency relative to control; type: functional; set-up: scale not given: the % may be the effect or the level left
[22] = target: 11-beta-hydroxysteroid dehydrogenase 1 (Homo sapiens, UniProt P28845); assay: Inhibition of human 11beta-HSD1
11-beta-hydroxysteroid dehydrogenase 1, sequence (P28845 whole entry): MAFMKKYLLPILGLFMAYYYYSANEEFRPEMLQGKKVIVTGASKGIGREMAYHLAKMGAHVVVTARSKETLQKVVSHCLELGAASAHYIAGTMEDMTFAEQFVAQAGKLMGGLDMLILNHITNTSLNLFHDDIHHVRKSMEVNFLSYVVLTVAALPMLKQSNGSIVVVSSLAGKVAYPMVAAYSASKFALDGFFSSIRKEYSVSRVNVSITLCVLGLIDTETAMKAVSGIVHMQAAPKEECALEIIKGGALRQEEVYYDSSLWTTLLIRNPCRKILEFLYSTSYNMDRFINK

MCF7 = assay: Antiproliferative activity against human MCF7 cells assessed as cell growth inhibition; type: functional, cell-based
Bacillus subtilis = assay: Antimicrobial activity against Bacillus subtilis assessed as bacterial growth inhibition; type: functional
Staphylococcus aureus = assay: Antimicrobial activity against Staphylococcus aureus USA300 assessed as bacterial growth inhibition; type: functional
HCT-116 [23] = assay: Antiproliferative activity against human HCT-116 cells assessed as cell growth inhibition; type: functional, cell-based
SW480 = assay: Antiproliferative activity against human SW480 cells assessed as cell growth inhibition; type: functional, cell-based

Work on `O=c1[nH]cc(F)c(=O)[nH]1` [FLUOROURACIL] yielded an Activity (HCT-116 [1]) of 5%, an Activity (HCT-116 [2]) of 13.8% and an Activity (HCT-116 [3]) of 27.4%. The Activity (HCT-116 [4]) was 28.8%, the Activity (HCT-116 [5]) was 49.4% and the Activity (HCT-116 [6]) was 5.7%. For the same molecule, the Activity (HCT-116 [7]) was 20.2% and the Activity (HCT-116 [8]) was 30.1%.

For `CC1(C)CCC[C@](C)(C2CC[C@]3(C)C2[C@H](O)CC2[C@@]4(C)CC[C@H](OC(=O)CCCC(=O)O)C(C)(C)C4CC[C@]23C)O1` (stereo not given in full), the pIC50 (HepG2 2.2.15) was 5.14.

With `CC1(C)CCC[C@](C)(C2CC[C@]3(C)C2[C@H](O)CC2[C@@]4(C)C/C(=C/c5ccc(O)cc5)C(=O)C(C)(C)C4CC[C@]23C)O1` (stereo not given in full) the pIC50 (LNCaP) was > 4.41 and the pIC50 (PC-3) was 4.93.

For `Oc1cc(O)c2c(c1)O[C@H](c1ccc(O)c(O)c1)[C@H](O)C2` [(-)-EPICATECHIN], the Activity (HCT-116 [9]) was 17% and the Activity (HCT-116 [10]) was 9.4%.

`CC1(C)CCC[C@](C)(C2CC[C@]3(C)C2[C@H](O)CC2[C@@]4(C)CC[C@H](OC(=O)c5cccs5)C(C)(C)C4CC[C@]23C)O1` (stereo not given in full) gave a pIC50 (HepG2 2.2.15) of 5.14, a pIC50 (Hepatitis B virus [11]) of 4.78 and a pIC50 (Hepatitis B virus [12]) of 4.51. It also gave a pIC50 (Hepatitis B virus [13]) of 4.74.

`CC1(C)CCC[C@](C)(C2CC[C@]3(C)C2[C@H](O)CC2[C@@]4(C)CC[C@H](O)C(C)(C)C4CC[C@]23C)O1` (stereo not given in full) showed an Activity (HCT-116 [14]) of 50.7%, an Activity (HCT-116 [15]) of 97.2% and an Activity (HCT-116 [16]) of 94.7%. It also gave an Activity (HCT-116 [17]) of 28.7%, an Activity (HCT-116 [18]) of 11.9% and an Activity (HCT-116 [19]) of 16.6%. For the same molecule, the Activity (HCT-116 [20]) was 25.8%, the Activity (HCT-116 [21]) was 7.2% and the pIC50 (SK-HEP1) was 6.10. The pIC50 (HeLa) was 5.92 and the Activity (Mus musculus) was 29.5%.

In the case of `CC(=O)O[C@@H]1CC2[C@@]3(C)CC[C@H](O)C(C)(C)C3CC[C@@]2(C)[C@]2(C)C(=O)C=CC12` (stereo not given in full), the pIC50 [22] was 7.47.

Molecule `CC1(C)CCC[C@](C)(C2CC[C@]3(C)C2[C@H](O)CC2[C@@]4(C)CC[C@H](OC(=O)c5ccccc5O)C(C)(C)C4CC[C@]23C)O1` (stereo not given in full) has a pIC50 (HepG2 2.2.15) of 5.14.

`CC1(C)CCC[C@](C)(C2CC[C@]3(C)C2[C@H](O)CC2[C@@]4(C)CC[C@H](OC(=O)c5c(Cl)c(Cl)c(Cl)c(Cl)c5C(=O)O)C(C)(C)C4CC[C@]23C)O1` (stereo not given in full) gave a pIC50 (MCF7) of 5.06.

In the case of `CC1(C)CCC[C@](C)(C2CC[C@]3(C)C2[C@H](O)CC2[C@@]4(C)C/C(=C/c5cccs5)C(=O)C(C)(C)C4CC[C@]23C)O1` (stereo not given in full), the pIC50 (LNCaP) was > 4.41 and the pIC50 (PC-3) was 4.33.

Molecule `CC(C)(O)[C@@H]1CC[C@@](C)([C@H]2CC[C@]3(C)C2[C@H](O)CC2[C@@]4(C)CC[C@H](OC(=O)C5CCNCC5)C(C)(C)C4CC[C@]23C)O1` (stereo not given in full) has an MIC (Bacillus subtilis) of 2 µg/mL (≈ 3.4 µM) and an MIC (Staphylococcus aureus) of 168 µg/mL (≈ 286 µM).

With `CC1(C)CCC[C@](C)(C2CC[C@]3(C)C2[C@H](O)CC2[C@@]4(C)C/C(=C/c5ccc(C(F)(F)F)cc5)C(=O)C(C)(C)C4CC[C@]23C)O1` (stereo not given in full) the pIC50 (LNCaP) was > 4.41 and the pIC50 (PC-3) was 4.45.

`CC(=O)O[C@H]1CC[C@@]2(C)C(CC[C@]3(C)C2C[C@@H](O)C2C([C@@](C)(O)CCC=C(C)C)CC[C@]23C)C1(C)C` (stereo not given in full) gave a pIC50 (HCT-116 [23]) of 4.36, a pIC50 (SW480) of 4.52 and a pIC50 (MCF7) of 4.43.
